How the values were obtained:
AmGSTF1 [1] = assay: CDNB assay: inhibition of AmGSTF1-catalysed glutathionylation of CDNB; format: biochemical, Alopecurus myosuroides; conditions: for CDNB Assay % Inhibition: three replicate measurements
AmGSTF1 [2] = assay: Thermal shift assay; format: binding, Alopecurus myosuroides; conditions: difference in melting temperature compared to no ligand

| Compound | CDNB Assay % Inhibition (AmGSTF1 [1]; 1 µM compound) [%] | CDNB Assay % Inhibition (AmGSTF1 [1]; 10 µM compound) [%] | CDNB Assay % Inhibition (AmGSTF1 [1]; 100 µM compound) [%] | Thermal Shift Assay ∆Tm (AmGSTF1 [2]; 1 µM) | Thermal Shift Assay ∆Tm (AmGSTF1 [2]; 10 µM) | Thermal Shift Assay ∆Tm (AmGSTF1 [2]; 100 µM) | Inhibitory activity toward AmGSTF1 in the CDNB assay (in words) (AmGSTF1 [1]) |
| --- | --- | --- | --- | --- | --- | --- | --- |
| COc1cc(OC(C(=O)O)c2ccc(Cl)cc2)c2c(=O)cc(-c3ccccc3)oc2c1 (stereo not drawn) [compound 49] | 27 | – | – | – | – | – | – |
| COc1cc(OC)c2c(=O)cc(-c3ccccc3)oc2c1 [18a] | – | 20 | 70 | 0.23 | 0.33 | 0.3 | – |
| COc1cc(OC)c2c(=O)cc(-c3cccc(-c4ccccc4)c3)oc2c1 [18d] | – | 12 | 87 | 0.13 | 0.13 | -0.1 | – |
| CCCCCCCCCC(Oc1cc(OC)cc2oc(-c3ccccc3)cc(=O)c12)C(=O)O (stereo not drawn) [compound 44] | 58 | 97 | – | 0.40 | 0.70 | 0.90 | – |
| COc1cc(OC)c2c(=O)cc(-c3nnn[nH]3)oc2c1 [compound 22] | – | 13 | 53 | -0.23 | -0.27 | -0.43 | – |
| COc1cc(OC)c2c(=O)cc(C(=O)Nc3ccccc3)oc2c1 [16a] | – | 26 | 49 | 0.17 | 0.03 | 0.03 | – |
| Oc1cc(O)c2c(c1)OC(c1ccc(O)c(O)c1)C(O)C2 (stereo not drawn) [compound 10, catechin, reference compound] | – | – | 0 | – | – | – | no inhibition |
| O=C1c2c(O)cc(O)cc2O[C@H](c2ccc(O)c(O)c2)[C@H]1O [compound 8, reference compound] | – | – | 18 | – | – | – | – |
| O=c1cc(-c2ccccc2)oc2cc(O)cc(O)c12 [compound 2, 5,7-dihydroxyflavone, reference compound] | – | 47 | 96 | 0.1 | 0.1 | 0.2 | – |
| COc1cc(OC(C(=O)O)c2ccccc2)c2c(=O)cc(-c3ccccc3)oc2c1 (stereo not drawn) [compound 48] | 16 | – | – | – | – | – | – |
| O=c1cc(-c2ccccc2)oc2cc(OCc3cccnc3)cc(O)c12 [compound 35] | – | – | 87 | – | – | – | – |
| COc1cc(OC)c2c(=O)cc(C(=O)Nc3ccc(C)cc3)oc2c1 [16c] | – | 33 | 64 | 0.20 | 0.10 | 0.33 | – |
| COc1cc(OC)c2c(=O)cc(-c3ccccc3C)oc2c1 [18j] | – | 9 | 36 | -0.13 | -0.03 | -0.03 | – |
| COc1cc(OC(C(=O)O)C(C)C)c2c(=O)cc(-c3ccccc3)oc2c1 (stereo not drawn) [compound 47] | 7 | – | – | – | – | – | – |
| COc1cc(OC)c2c(=O)cc(-c3ncco3)oc2c1 [compound 20] | – | 11 | 64 | -0.10 | -0.17 | -0.23 | – |
| O=c1cc(-c2ccccc2)oc2cc(N3CCCCC3)cc(O)c12 [compound 38] | – | – | 88 | – | – | – | – |
| O=c1cc(-c2ccccc2)oc2cc(OCC3CC3)cc(O)c12 [compound 31] | – | – | 76 | – | – | – | – |
| COc1cc(OC)c2c(=O)cc(-c3ccc(OC)c(OC)c3)oc2c1 [18g] | – | 11 | 100 | 0.30 | -0.03 | 0.17 | – |
| O=c1cc(-c2ccccc2)oc2cc(OCC3CCCCO3)cc(O)c12 (stereo not drawn) [compound 34] | – | – | 28 | – | – | – | – |
| COc1cc(NC(=O)c2cc(=O)c3c(OC)cc(OC)cc3o2)cc(OC)c1 [16b] | – | 19 | 56 | 0.20 | 0.50 | 0.13 | – |
| CCCCCCCC(Oc1cc(OC)cc2oc(-c3ccccc3)cc(=O)c12)C(=O)O (stereo not drawn) [compound 43] | 40 | 86 | – | 0.27 | 0.70 | 2.93 | – |
| CC(=O)Oc1cc(O)c2c(=O)cc(-c3ccccc3)oc2c1 [compound 28] | – | – | 10 | – | – | – | – |
| O=c1cc(-c2ccccc2)oc2cc(N3CCOCC3)cc(O)c12 [compound 39] | – | 56 | 100 | – | – | – | – |
| COc1ccc(-c2coc3cc(O)ccc3c2=O)cc1 [compound 6, reference compound] | – | – | 41 | – | – | – | – |
| COc1cc(OC(Cc2ccccc2)C(=O)O)c2c(=O)cc(-c3ccccc3)oc2c1 (stereo not drawn) [compound 50] | 8 | – | – | – | – | – | – |

Reference: paper PMC8564858, “Flavonoid-based inhibitors of the Phi-class glutathione transferase from black-grass to combat multiple herbicide resistance” (Organic & Biomolecular Chemistry, 2021)
